Reference: US20170275270A1, “BENZYL SUBSTITUTED INDAZOLES” (Bayer Pharma Aktiengesellschaft, priority 2014, published 2017)
Values joined by “and” are separate entries in the source; they are usually repeats but may differ in a detail not shown here. Equal entries are not always repeated. Structures can show the parent of a compound that is named as a salt. Where two headings read alike, the source gives them in different places.

Assays:
Bub1 = Bub1 (Homo sapiens, UniProt O43683); assay: Formation-Assay: phosphorylation status of histone 2A by inhibition of kinase activity of Bub1; assay type: cell-based; conditions: Biological Assay 4.1: H2A Formation IC50, co-treatment with Nocodazole 1 μg/ml, 16 h
Procedure: Biological Assay 4.1: Formation-Assay
Cell-Based Mechanistic Assay: Changes of Phosphorylation Status of Histone 2A by Inhibition of Kinase Activity of Bub1
This assay determines the suppression of histone 2A phosphorylation by a Bub1 kinase inhibitor during co-treatment with Nocodazole. 25000 cells (cells were ordered from ATCC) were seeded in 96 well plate for 5 h at 37° C. Cells were treated with Nocodazole (1 μg/ml) and varying concentrations (between 3 nM and 10 μM) of test compounds for 16 h. Cells were fixed (20 min, Fixing solution R&D), washed three times with PBS and blocked with Odyssey blocking buffer before incubating with the primary antibody against phosphorylated H2A (5 μg/ml ABIN482721) overnight at 2-8° C. After washing, secondary IRDye-labeled antibody mix with cell stains was added for 1 h and washed again with PBS. Plates were scanned with LiCor Odyssey Infrared Imager CLx at 800 nm for P-H2A and at 700 nm for cell stains Draq5/Sapphire. The quotient of 800 nm and 700 nm for Nocodazole only treated cells was set as 100% and the quotient of 800 nm and 700 nm of untreated cells was set as 0%.
Histone H2A is an immediate intracellular substrate of Bub1 kinase. Determination of the phosphorylation status of Histone H2A provides a direct measure of the intracellular activity of Bub1 kinase.

HeLa = assay: Proliferation assay (HeLa cell line);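 note: crystal violet staining of cell number, scaled between a plate stained before dosing (0%) and cells left untreated (100%), compounds tested at 0.001-10 µM, IC50 via 4-parameter fit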
[1] = target: T1, catalytic domain of human Bub1 (amino acids 704-1085) (Homo sapiens, UniProt O43683); assay: Bub1 kinase assay (TR-FRET); assay type: biochemical
T1 construct: catalytic domain of human Bub1 (amino acids 704-1085); His6 (N); made in house; host or cells: Hi5 insect cells
Method in brief: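 Compounds from 2 mM DMSO stocks, serially diluted 1:3.4, incubated with enzyme at 22° C for 60 min. Stopped with EDTA, then 1 h with streptavidin-XL665, anti-phosphoserine antibody and Eu-labelled anti-mouse IgG. Phosphorylated biotin-peptide read by TR-FRET; IC50 by 4-parameter logistic fit.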

[2] = tested on: HeLa human cervical tumor cells; assay: Proliferation assay (HeLa+Paclitaxel); conditions: read-out: Biological Assay 3: HeLa + Paclitaxel IC50, 3 nM paclitaxel, crystal violet;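 note: compounds at 0.001-10 µM added 4 h after paclitaxel, 92 h exposure, absorbance normalized to zero-point plate (0%) and untreated cells (100%), IC50 from 4-parameter fit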
[3] = Homo sapiens, 96 h, read-out: Biological Assay 2: Proliferation assay (HeLa cell line) median IC50
[4] = Biological Assay 1: Bub1 kinase assay median IC50, 10 μM ATP
[5] = 10 μM ATP, read-out: Biological Assay 1: Bub1 kinase assay median IC50

T1 sequence (O43683 704-1085): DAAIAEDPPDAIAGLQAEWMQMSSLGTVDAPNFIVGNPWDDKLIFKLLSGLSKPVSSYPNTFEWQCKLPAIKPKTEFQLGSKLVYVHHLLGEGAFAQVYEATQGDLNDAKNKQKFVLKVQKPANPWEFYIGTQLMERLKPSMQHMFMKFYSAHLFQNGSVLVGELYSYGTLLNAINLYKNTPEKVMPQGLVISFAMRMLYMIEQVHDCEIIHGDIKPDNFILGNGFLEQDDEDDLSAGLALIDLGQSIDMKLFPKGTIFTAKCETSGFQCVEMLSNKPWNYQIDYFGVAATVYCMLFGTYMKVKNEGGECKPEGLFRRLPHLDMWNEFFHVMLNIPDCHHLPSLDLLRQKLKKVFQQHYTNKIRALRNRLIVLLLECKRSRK
Chain of Bub1 (O43683 whole entry): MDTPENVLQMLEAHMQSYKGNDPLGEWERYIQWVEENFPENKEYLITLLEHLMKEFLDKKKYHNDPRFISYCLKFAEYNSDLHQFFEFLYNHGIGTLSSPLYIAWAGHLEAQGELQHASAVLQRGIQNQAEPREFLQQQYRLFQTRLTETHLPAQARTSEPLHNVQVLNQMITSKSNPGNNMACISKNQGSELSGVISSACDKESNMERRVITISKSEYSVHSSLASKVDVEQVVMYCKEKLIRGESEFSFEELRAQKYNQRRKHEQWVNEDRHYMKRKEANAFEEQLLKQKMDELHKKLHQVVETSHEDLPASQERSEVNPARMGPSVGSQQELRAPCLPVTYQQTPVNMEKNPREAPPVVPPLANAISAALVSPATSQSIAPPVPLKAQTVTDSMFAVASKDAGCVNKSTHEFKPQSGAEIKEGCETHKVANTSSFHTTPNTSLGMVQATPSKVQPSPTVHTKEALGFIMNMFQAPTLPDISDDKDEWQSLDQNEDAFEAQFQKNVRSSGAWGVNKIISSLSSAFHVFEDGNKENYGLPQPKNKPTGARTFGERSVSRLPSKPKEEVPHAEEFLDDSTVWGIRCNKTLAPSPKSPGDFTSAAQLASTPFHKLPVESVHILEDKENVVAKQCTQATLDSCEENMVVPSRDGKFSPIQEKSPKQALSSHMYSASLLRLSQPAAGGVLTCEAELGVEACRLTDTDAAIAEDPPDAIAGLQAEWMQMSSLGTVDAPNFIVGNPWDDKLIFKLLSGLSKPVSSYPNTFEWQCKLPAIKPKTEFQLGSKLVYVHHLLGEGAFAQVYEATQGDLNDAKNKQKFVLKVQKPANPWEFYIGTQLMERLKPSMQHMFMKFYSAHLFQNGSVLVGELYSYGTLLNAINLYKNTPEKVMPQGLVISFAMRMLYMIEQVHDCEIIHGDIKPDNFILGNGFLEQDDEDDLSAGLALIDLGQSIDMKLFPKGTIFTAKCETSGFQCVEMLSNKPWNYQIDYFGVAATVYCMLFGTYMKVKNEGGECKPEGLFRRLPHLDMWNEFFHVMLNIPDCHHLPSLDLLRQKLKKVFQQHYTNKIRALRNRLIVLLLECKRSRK

Row | IC50 (Bub1) | IC50 (HeLa; [3]) [nM] | IC50 [1, 4] [nM] | IC50 [2] [nM] | IC50 [1, 5] [nM] | IC50 (HeLa; read-out: Biological Assay 2: Proliferation assay (HeLa cell line) median IC50, 4 days, crystal violet) [nM] | Structure (SMILES)
1 | 7.1 nM | 2400 | 36 | 340 | – | – | OCCOc1cc(F)c(Cn2nc(-c3ncc(C4CCN(CC(F)(F)F)CC4)c(Nc4ccncc4Cl)n3)c3ccccc32)c(F)c1 [Example 2-6-14, 2-{4-[(3-{4-[(3-chloropyridin-4-yl)amino]-5-[1-(2,2,2-trifluoroethyl)piperidin-4-yl]pyrimidin-2-yl}-1H-indazol-1-yl)methyl]-3,5-difluorophenoxy} ethanol]
2 | 19 nM | 2200 | 31 | 180 | – | – | OCCOc1cc(F)c(Cn2nc(-c3ncc(C4CCN(CCC(F)(F)F)CC4)c(Nc4ccncc4Cl)n3)c3ccccc32)c(F)c1 [Example 2-6-15, 2-{4-[(3-{4-[(3-chloropyridin-4-yl)amino]-5-[1-(3,3,3-trifluoropropyl)piperidin-4-yl]pyrimidin-2-yl}-1H-indazol-1-yl)methyl]-3,5-difluorophenoxy} ethanol]
3 | 0.56 nM | > 10000 | 550 | 60 | – | – | Cc1nccc(Nc2nc(-c3nn(Cc4c(F)cc(OCCO)cc4F)c4ccccc34)ncc2C2CCN(CC(F)(F)F)CC2)n1 [Example 2-6-16, 2-{3,5-difluoro-4-[(3-{4-[(2-methylpyrimidin-4-yl)amino]-5-[1-(2,2,2-trifluoroethyl)piperidin-4-yl]pyrimidin-2-yl}-1H-indazol-1-yl)methyl]phenoxy}ethanol]
4 | 0.79 nM | > 10000 | 30 | 90 | – | – | Cc1nccc(Nc2nc(-c3nn(Cc4c(F)cc(OCCO)cc4F)c4ccccc34)nc3c2CCC3)n1 [Example 2-6-18, 2-{3,5-difluoro-4-[(3-{4-[(2-methylpyrimidin-4-yl)amino]-6,7-dihydro-5H-cyclopenta[d]pyrimidin-2-yl}-1H-indazol-1-yl)methyl]phenoxy}ethanol]
5 | 2.6 nM | > 10000 | 8.9 | 140 | – | – | OCCOc1cc(F)c(Cn2nc(-c3nc4c(c(Nc5ccncn5)n3)CCC4)c3ccccc32)c(F)c1 [Example 2-6-19, 2-[3,5-difluoro-4-({3-[4-(pyrimidin-4-ylamino)-6,7-dihydro-5H-cyclopenta[d]pyrimidin-2-yl]-1H-indazol-1-yl}methyl)phenoxy]ethanol]
6 | 1.8 nM | 3400 | – | 140 | 66 | – | Cc1cc(Nc2nc(-c3nn(Cc4c(F)cc(OCCO)cc4F)c4ccccc34)nc3c2CCC3)c(C)cn1 [Example 2-6-20, 2-{4-[(3-{4-[(2,5-dimethylpyridin-4-yl)amino]-6,7-dihydro-5H-cyclopenta[d]pyrimidin-2-yl}-1H-indazol-1-yl)methyl]-3,5-difluorophenoxy} ethanol]
7 | 84 nM | 3400 | 11 | 170 | – | – | Cc1cc(Nc2nc(-c3nn(Cc4c(F)cc(OCCO)cc4F)c4ccccc34)nc3c2CCC3)c(F)cn1 [Example 2-6-21, 2-{3,5-difluoro-4-[(3-{4-[(5-fluoro-2-methylpyridin-4-yl)amino]-6,7-dihydro-5H-cyclopenta[d]pyrimidin-2-yl}-1H-indazol-1-yl)methyl]phenoxy}ethanol]
8 | 180 nM | 9200 | 81 | 99 | – | – | Cc1nccc(Nc2nc(-c3nn(Cc4c(F)cc(OCCO)cc4F)c4ccccc34)nc3c2CC(C)(C)C3)n1 [Example 2-6-22, 2-{4-[(3-{6,6-dimethyl-4-[(2-methylpyrimidin-4-yl)amino]-6,7-dihydro-5H-cyclopenta[d]pyrimidin-2-yl}-1H-indazol-1-yl)methyl]-3,5-difluorophenoxy} ethanol]
9 | 12 nM | 3000 | 82 | 64 | – | – | Cc1nccc(Nc2nc(-c3nn(Cc4c(F)cc(OCCO)cc4F)c4ccccc34)ncc2C2CCN(CC3CC3)CC2)n1 [Example 2-6-23, 2-{4-[(3-{5-[1-(cyclopropyl-methyl)piperidin-4-yl]-4-[(2-methylpyrimidin-4-yl)amino]pyrimidin-2-yl}-1H-indazol-1-yl)methyl]-3,5-difluorophenoxy} ethanol]
10 | 14 nM | > 10000 | 120 | 150 | – | – | Cc1nccc(Nc2nc(-c3nn(Cc4c(F)cc(OCCO)cc4F)c4ccccc34)nc3c2CCC(C)(C)C3)n1 [Example 2-6-24, 2-{4-[(3-{7,7-dimethyl-4-[(2-methylpyrimidin-4-yl)amino]-5,6,7,8-tetrahydroquin-azolin-2-yl}-1H-indazol-1-yl)methyl]-3,5-difluorophenoxy} ethanol]
11 | 260 nM | 9500 | – | 2300 | 40 | – | OCCOc1cc(F)c(Cn2nc(-c3nc(CN4CCOCC4)cc(Nc4ccnnc4)n3)c3ccccc32)c(F)c1 [Example 2-6-37, 2-[3,5-difluoro-4-({3-[4-(morpholin-4-ylmethyl)-6-(pyridazin-4-ylamino)pyrimidin-2-yl]-1H-indazol-1-yl}methyl)phenoxy]ethanol]
12 | 2300 nM | > 10000 | – | 930 | 10 | – | OCCOc1cc(F)c(Cn2nc(-c3nc(CN4CCOCC4)cc(Nc4ccncc4)n3)c3ccccc32)c(F)c1 [Example 2-6-38, 2-[3,5-difluoro-4-({3-[4-(morpholin-4-ylmethyl)-6-(pyridin-4-ylamino)pyrimidin-2-yl]-1H-indazol-1-yl}methyl)phenoxy]ethanol]
13 | 570 nM | 3500 | 6.3 | 450 | – | – | CCOc1cc(F)c(Cn2nc(-c3ncc(CC[S@](C)(=N)=O)c(Nc4ccncc4)n3)c3ccccc32)c(F)c1 [Example 2-7-1, 2-[1-(4-ethoxy-2,6-difluorobenzyl)-1H-indazol-3-yl]-5-[2-(S-methylsulfonimidoyl)ethyl]-N-(pyridin-4-yl)pyrimidin-4-amine]
14 | 1600 nM | 1100 | – | 360 | 8.8 | – | CCOc1cc(F)c(Cn2nc(-c3ncc(CCN)c(Nc4ccncc4)n3)c3ccccc32)c(F)c1 [Example 2-9-2, 5-(2-aminoethyl)-2-[1-(4-ethoxy-2,6-difluorobenzyl)-1H-indazol-3-yl]-N-(pyridin-4-yl)pyrimidin-4-amine]
15 | > 3000 nM and 4900 nM | – | 5.8 | 240 | – | 1100 | CCOc1cc(F)c(Cn2nc(-c3ncc(C4CCNCC4)c(Nc4ccncc4)n3)c3ccccc32)c(F)c1 [Example 2-9-3, 2-[1-(4-ethoxy-2,6-difluorobenzyl)-1H-indazol-3-yl]-5-(piperidin-4-yl)-N-(pyridin-4-yl)pyrimidin-4-amine, salt with hydrochloric acid]
16 | 440 nM | 1900 | – | 420 | 7.8 | – | CCOc1cc(F)c(Cn2nc(-c3ncc(CC4CNC4)c(Nc4ccncc4)n3)c3ccccc32)c(F)c1 [Example 2-9-4, 5-(azetidin-3-ylmethyl)-2-[1-(4-ethoxy-2,6-difluorobenzyl)-1H-indazol-3-yl]-N-(pyridin-4-yl)pyrimidin-4-amine, salt with hydrochloric acid]
17 | 1.8 nM | 1800 | – | 340 | 14 | – | CCOc1cc(F)c(Cn2nc(-c3ncc(CN)c(Nc4ccncc4)n3)c3ccccc32)c(F)c1 [Example 2-9-5, 5-(aminomethyl)-2-[1-(4-ethoxy-2,6-difluorobenzyl)-1H-indazol-3-yl]-N-(pyridin-4-yl)pyrimidin-4-amine, salt with hydrochloric acid]
18 | 2.9 nM | 3700 | – | 260 | 90 | – | CCOc1cc(F)c(Cn2nc(-c3ncc(CN)c(Nc4ccnc(C(F)F)c4)n3)c3ccccc32)c(F)c1 [Example 2-9-6, 5-(aminomethyl)-N-[2-(difluoro-methyl)pyridin-4-yl]-2-[1-(4-ethoxy-2,6-difluorobenzyl)-1H-indazol-3-yl]pyrimidin-4-amine, salt with hydrochloric acid]
19 | 6.7 nM | 10000 | 7.4 | 170 | – | – | CCOc1cc(F)c(Cn2nc(-c3ncc(CC4CNC4)c(Nc4ccnc(NC(C)=O)c4)n3)c3ccccc32)c(F)c1 [Example 2-9-7, N-[4-({5-(azetidin-3-ylmethyl)-2-[1-(4-ethoxy-2,6-difluorobenzyl)-1H-indazol-3-yl]pyrimidin-4-yl}amino)pyridin-2-yl]acetamide, salt with hydrochloric acid]
